“Also recorded” adds a separate entry of the source.
Key:
[1] = target: T1, Aβ1–42 (Homo sapiens, UniProt P05067); assay: Self-induced Aβ1–42 aggregation, thioflavin T (ThT) fluorescence assay; assay type: biochemical
T1 construct: Aβ1–42 (Adooq Bioscience, CA, USA); purchased Adooq Bioscience
Procedure: The novel hybrid 8-hydroxyquinoline-indole derivatives, 7a–7e, 12a, 12b, and the (8-hydroxyquinolin-2-yl)methyl-4-(1H-indole-2-carbonyl)piperazine-1-carboxylate analogs 18a–18h were evaluated for inhibitory activity against self-induced Aβ1–42 aggregation at five different concentrations (0.3, 1.0, 3, 9 and 27 µM) with 25 µM Aβ1–42, utilizing a thioflavin T (ThT) fluorescence assay with clioquinol, 1 as a positive control (Figure 3). In the absence of inhibitor, the self-induced Aβ1–42 aggregation ThT fluorescence was recorded as 115 arbitrary units (a.u.). The self-induced Aβ1–42 aggregation results for all the above synthetic analogs from the ThT fluorescence assay are shown in Table 1. […] The thioflavin T (ThT)-fluorescence assay was used to measure the inhibition of Aβ aggregation. Aβ1–42 (Adooq Bioscience, CA, USA) was pretreated with 1 mL of hexafluoroisopropanol (HFIP) to afford a stock solution, which was aliquoted into small samples. The solvent was evaporated at room temperature, and samples were stored at −80 °C. For Aβ1–42 aggregation inhibition experiments, phosphate buffer (pH 7.4) was added to the Aβ stock solution to afford a 50 µM concentration before use. A mixture of the Aβ1–42 peptide (10 µL, 25 µM final concentration) with or without the test compound (10 µL; 0.3, 1.0, 3, 9, and 27 µM) was incubated at 37 °C for 48 h. Blanks using phosphate buffer (pH 7.4) instead of Aβ, with or without test compound, were also assessed. Then 50 mM glycine-NaOH buffer (pH 8.0) containing ThT (5 µM) was added to 20 µL of the sample to afford a final volume of 200 µL. The fluorescence intensities were recorded (excitation, 450 nm; emission, 485 nm). The fluorescence intensities were background corrected to the no enzyme control and 100% of intensity reflected no inhibition of aggregation. To obtain the normalized amyloid aggregation inhibition relative to the control group, the amyloid aggregation/cell values were further divided by the total amyloid fluorescence of the control group. Using GraphPad Prism, the amyloid aggregation values (relative to control group) were entered along the corresponding concentrations for the triplicates and then a log transformation was obtained. Using the dose–response simulation module in GraphPad Prism, nonlinear regression fit (curve) was then generated for each small molecule with various concentrations used. Curves were then compared to determine if they were statistically different, by performing the best-fit values of selected unshared parameters between data sets and extra sum-of-squares F test, allowing for selection of the simpler model unless the P value was less than 0.05. The logEC50 output parameter was then selected to obtain the EC50 for each of the dose–response curves for the small molecules.

[2] = Metal-chelation study by UV-vis spectroscopy and Job's method; assay type: physicochemical; conditions: compound 50 µM, HEPES buffer pH 7.4, 30 min, shift from 252 nm
Procedure: Furthermore, the stoichiometry of formation of metal complexes 18f-Cu^2+ and 18f-Zn^2+ was also determined by using Job’s method (Figure 6). The […] shown in Figure 6A,B at 0.6 and 0.5 imply a stoichiometry of 1.5:1 for 18f-Cu^2+ and 1:1 for 18f-Zn^2+.
The chelating studies were performed with a UV–vis spectrophotometer. The absorption spectra of test compound (50 μM, final concentration) alone or in the presence of CuSO4, FeSO4, or ZnCl2 (50 μM, final concentration) in buffer (20 mM HEPES, 150 mM NaCl, pH 7.4) were incubated for 30 min and then recorded at room temperature, respectively. For the stoichiometry of the test compound–Cu^2+ complex or the test compound–Zn^2+ complex, a fixed amount of test compound (50 μM) was mixed with increasing amounts of copper ion or Zn ion (0–100 μM), and the UV–vis difference spectra were analyzed to determine the ratio of ligand/metal ion in the complex.

[3] = test system: HEK-tau cells; assay: Protein aggregation in HEK-tau cells (ThT staining); assay type: cell-based, Human; conditions: 1 µM, 48 h, 37 °C; compared to clioquinol (1)
Procedure: In our study, we have shown that restoring metal homeostasis by treatment with hybrid 8-hydroxyquinoline-indole analogs reduces tau- and amyloid-mediated protein aggregation, and their associated neurotoxicity. Analogs 7a–7d, 18c–18f, and 18h were evaluated for their ability to reduce protein aggregation in HEK-tau cells. HEK-tau cells were exposed to the above Aβ1–42 aggregation inhibitors and parent drug clioquinol (1) at 1 µM for 48 h at 37 °C. Cells were assessed for amyloid deposits by staining with 0.1% w/v thioflavin T, counterstaining nuclei with DAPI, and mean ThT fluorescence signal per nucleus was calculated over multiple fields. All the analogs reduced fluorescence intensity (indicative of protein aggregation) by 26–62% (P < 0.001 by 2-tailed t-test).
(§1) Human Embryonic Kidney cells that overexpress tau protein (HEK-tau) cells or SY5Y neuroblastoma cells that express a familial-AD mutant of amyloid precursor protein (SY5Y-APPSw cells) were each seeded in 96-well plates at 8000 cells per well. After 24 h, cells were supplemented with test compound at 1 µM after diluting with medium. Vehicle only control was also included for each experiment. The cells were cultured for an additional 48 h at 37 °C. Both the cell lines were able to reach approximately 80% confluency in 48 h. Cells were assessed for amyloid deposits by staining with 0.1% w/v ThT, counterstaining nuclei with DAPI, and calculating mean ThT fluorescence signal per nucleus over multiple fields.

[4] = test system: SY5Y-APPSw cells; assay: Protein aggregation in SY5Y-APPSw cells (ThT staining); assay type: cell-based; conditions: 1 µM, 48 h, 37 °C; compared to clioquinol (1)
Procedure: In another study compounds 7a–7d, 18c–18f, and 18h were also evaluated for their ability to reduce protein aggregation in SY5Y-APPSw cells. SY5Y-APPSw cells were exposed to the above protein aggregation inhibitors and parent compound 1 at 1 µM for 48 h at 37 °C. Cells were assessed for amyloid deposits by staining with 0.1% w/v ThT, counterstaining nuclei with DAPI, and mean ThT fluorescence signal per nucleus calculated over multiple fields. All the analogs reduced fluorescence intensity (indicative of protein aggregation) by 22–67% (P < 0.001 by 2-tailed t-test). […] Thioflavin-T fluorescence assays for in vitro amyloid aggregation and cell culture models of amyloid aggregation overlap but are not identical. This is due to the fact that thioflavin in cell-culture stains not just amyloid aggregates but also other amyloid-like fibrillar structures. Another important difference is that in vitro aggregation is assessed after 24 h, whereas aggregation in cell culture is assessed after 48 h.
as §1

T1 sequence (P05067 672-713 limits assumed): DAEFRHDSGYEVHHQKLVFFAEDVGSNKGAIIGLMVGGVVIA

## COc1ccc2[nH]c(C(=O)N3CCN(C(=O)OCc4ccc5c(Cl)cc(Cl)c(O)c5n4)CC3)cc2c1 [Compound 18f, (5,7-Dichloro-8-hydroxyquinolin-2-yl)methyl-4-(5-methoxy-1H-indole-2-carbonyl)piperazine-1-carboxylate]
[1]; 25 µM Aβ1–42, compound 0.3-27 µM, 37 °C, 48 h, ThT fluorescence, read-out: EC50 against self-induced Aβ1–42 aggregation
  EC50: 1080 nM
[1]; relative to 1
  improvement in inhibitory potency over clioquinol (1), Aβ1–42 self-aggregation: 10 fold
[2]; CuSO4 50 µM
  maximum absorption wavelength in the presence of Cu^2+: 274 nm
[2]; FeSO4 50 µM
  maximum absorption wavelength in the presence of Fe^2+: 255 nm
[2]; ZnCl2 50 µM
  maximum absorption wavelength in the presence of Zn^2+: 269 nm
[3]
  protein aggregation inhibition in HEK-tau cells, result in words: most effective; also recorded: effective in reducing protein aggregation
[4]
  protein aggregation inhibition in SY5Y-APPSw cells, result in words: effective in reducing protein aggregation

Source: PMC7463714, “Design and Synthesis of Novel Hybrid 8-Hydroxy Quinoline-Indole Derivatives as Inhibitors of Aβ Self-Aggregation and Metal Chelation-Induced Aβ Aggregation” (Molecules, 2020)
